Values quoted from earlier work, collected in patent US20150150814A1, “STABLE ORAL PHARMACEUTICAL COMPOSITION OF SOLIFENACIN” (RANBAXY LABORATORIES LIMITED, priority 2013, published 2015).

Details: water at room temperature

- solubility in water: freely soluble
Structure (SMILES): O=C(O[C@H]1CN2CCC1CC2)N1CCc2ccccc2[C@@H]1c1ccccc1 [Solifenacin succinate, (1S)-(3R)-1-azabicyclo [2.2.2] oct-3-yl3,4-dihydro-1-phenyl-2(1H)iso-quinolinecarboxylate]
